{"source": "patent US20150026842A1", "about": "“METHOD OF CONTROLLING SUDDEN DEATH SYNDROME WITH FLUTRIAFOL” (CHEMINOVA A/S, priority 2013, published 2015)", "key": {"Fusarium virguliforme": {"tested_on": "Fusarium virguliforme", "test": "Mycelial colony growth of Fusarium virguliforme on flutriafol-amended PDA", "format": "cell-based", "procedure": "Inhibition of Fusarium virguliforme was tested in the following example:\nThe flutriafol composition used in the example was TOPGUARD (125 g/L flutriafol SC). Each pathogen was grown out on fresh potato dextrose agar (commercial PDA), assessed and used to seed 2× autoclaved rice for inoculums development. At 7-10 days, two infested rice grains of each pathogen (2 per pathogen type) was placed at equal distances on flutriafol-amended PDA and incubated at 27-29° C. Mycelial colony diameter from each rice grain was measured at 1, 3, 5 and 7 days from grain placement. The included tables and data sets illustrate the differences in mycelia growth in response to various concentrations of the fungicide for one of the SDS pathogen types, Fusarium virguliforme."}, "[1]": {"tested_on": "Sudden Death Syndrome (SDS)", "test": "Field trial: flutriafol applied pre-emergence to soybean for control of Sudden Death Syndrome", "format": "in vivo", "procedure": "The determination of the efficacy and selectivity of flutriafol fungicide when applied pre-emergence to soybean for control of Sudden Death Syndrome (SDS) was tested in the following example:\nThe experiment was conducted in a Drummer silty clay loam soil with a pH of 6.8 and 3.0% organic matter. The experiment was set up as a randomized complete block with four replications. Plots were four 30 inch rows or a total of 10 ft. wide by 40 ft. long. Plot site was conventionally tilled and the trial was established on May 15, 2013, by planting NK S36-B6, a sudden death syndrome susceptible soybean variety. Seed was planted 1.5 inches deep and the seeding rate was 140,000 seeds/A. Topguard (a commercially available flutriafol SC formulation comprising 125 g/l) was applied at planting in-furrow in a 3-5 inch T-band perpendicular to the row with Teejet 4001E nozzles in a spray volume of 2 GPA. Topguard rates applied were 0.13, 0.195, 0.26 lb ai/acre (corresponding to 145.7, 218.6, 291.4 g ai/ha, respectively). These correspond to rates of 16, 24, or 32 fl oz of product/acre, respectively. One treatment of a 3-5 inch band of 32 fl oz/A Topguard was applied on May 21 as an ‘At Cracking’ application immediately prior to crop emergence. Trial was inoculated with SDS on sterile sorghum media that was applied in-furrow with a gandy box at planting at a rate of 25 ml per 20 ft of row. Data was collected from the two center rows from each plot.\nDrip irrigation was installed so the trial had no moisture stress throughout the season. On August 12, 19 and 30, soybean sudden death syndrome (SDS) incidence (0-100%) and severity (0-9) were evaluated. An SDS disease index (SDS DX) was created by multiplying the % Incidence by the % Severity and dividing by 9. Soybeans were harvested on October 10 and yields were calculated and adjusted to bu/A at 13% moisture."}, "[2]": {"settings": "applied in a T-Band, August 12 and August 19"}}}
{"smiles": "OC(Cn1cncn1)(c1ccc(F)cc1)c1ccccc1F", "note": "(racemic) [flutriafol, (RS)-2,4′-difluoro-α-(1H-1,2,4-triazol-1-ylmethyl)benzhydryl alcohol]", "values": [{"measurement": "Dia (mm) 1 day", "setting": "Fusarium virguliforme; 0.01 ppm in PDA", "result": 0, "unit": "mm"}, {"measurement": "Dia (mm) 3 days", "setting": "Fusarium virguliforme; 0.01 ppm in PDA", "result": 10.4, "unit": "mm"}, {"measurement": "Dia (mm) 5 days", "setting": "Fusarium virguliforme; 0.01 ppm in PDA", "result": 15.6, "unit": "mm"}, {"measurement": "Dia (mm) 7 days", "setting": "Fusarium virguliforme; 0.01 ppm in PDA", "result": 19.6, "unit": "mm"}, {"measurement": "Dia (mm) 1 day", "setting": "Fusarium virguliforme; 0.1 ppm in PDA", "result": 0, "unit": "mm"}, {"measurement": "Dia (mm) 3 days", "setting": "Fusarium virguliforme; 0.1 ppm in PDA", "result": 10.1, "unit": "mm"}, {"measurement": "Dia (mm) 5 days", "setting": "Fusarium virguliforme; 0.1 ppm in PDA", "result": 16.4, "unit": "mm"}, {"measurement": "Dia (mm) 7 days", "setting": "Fusarium virguliforme; 0.1 ppm in PDA", "result": 19.8, "unit": "mm"}, {"measurement": "Dia (mm) 1 day", "setting": "Fusarium virguliforme; 1 ppm in PDA", "result": 0, "unit": "mm"}, {"measurement": "Dia (mm) 3 days", "setting": "Fusarium virguliforme; 1 ppm in PDA", "result": 9.6, "unit": "mm"}, {"measurement": "Dia (mm) 5 days", "setting": "Fusarium virguliforme; 1 ppm in PDA", "result": 15.3, "unit": "mm"}, {"measurement": "Dia (mm) 7 days", "setting": "Fusarium virguliforme; 1 ppm in PDA", "result": 20, "unit": "mm"}, {"measurement": "Dia (mm) 1 day", "setting": "Fusarium virguliforme; 10 ppm in PDA", "result": 0, "unit": "mm"}, {"measurement": "Dia (mm) 3 days", "setting": "Fusarium virguliforme; 10 ppm in PDA", "result": 7.5, "unit": "mm"}, {"measurement": "Dia (mm) 5 days", "setting": "Fusarium virguliforme; 10 ppm in PDA", "result": 13.9, "unit": "mm"}, {"measurement": "Dia (mm) 7 days", "setting": "Fusarium virguliforme; 10 ppm in PDA", "result": 18.1, "unit": "mm"}, {"measurement": "Dia (mm) 1 day", "setting": "Fusarium virguliforme; 100 ppm in PDA", "result": 0, "unit": "mm"}, {"measurement": "Dia (mm) 3 days", "setting": "Fusarium virguliforme; 100 ppm in PDA", "result": 0, "unit": "mm"}, {"measurement": "Dia (mm) 5 days", "setting": "Fusarium virguliforme; 100 ppm in PDA", "result": 0, "unit": "mm"}, {"measurement": "Dia (mm) 7 days", "setting": "Fusarium virguliforme; 100 ppm in PDA", "result": 3, "unit": "mm"}, {"measurement": "Dia (mm) 1 day", "setting": "Fusarium virguliforme; 250 ppm in PDA, 27-29° C.", "result": 0, "unit": "mm"}, {"measurement": "Dia (mm) 3 days", "setting": "Fusarium virguliforme; 250 ppm in PDA", "result": 0, "unit": "mm"}, {"measurement": "Dia (mm) 5 days", "setting": "Fusarium virguliforme; 250 ppm in PDA", "result": 0, "unit": "mm"}, {"measurement": "Dia (mm) 7 days", "setting": "Fusarium virguliforme; 250 ppm in PDA", "result": 0, "unit": "mm"}, {"measurement": "soybean yield", "setting": "[1]; T-band at 16, 24 or 32 oz/A, compared to the 'At Cracking' application and the untreated check", "result": "trend to higher soybean yield"}, {"measurement": "Disease Index scores", "setting": "[1]; [2]", "result": "numerically lower"}, {"measurement": "SDS Incidence", "setting": "[1]; [2]", "result": "numerically lower"}]}
